We go through 17 compounds from patent publication US10428080B2, “TBK/IKK inhibitor compounds and uses thereof” (Merck Patent GmbH, priority 2015, dated 2019).

Counter-ions that a name gives are not always drawn. Like-named read-outs stand apart in the source and are kept apart here.

One assay concerns the target T1, IKKε (Homo sapiens, UniProt Q14164).
T1 sequence (Q14164 1-716): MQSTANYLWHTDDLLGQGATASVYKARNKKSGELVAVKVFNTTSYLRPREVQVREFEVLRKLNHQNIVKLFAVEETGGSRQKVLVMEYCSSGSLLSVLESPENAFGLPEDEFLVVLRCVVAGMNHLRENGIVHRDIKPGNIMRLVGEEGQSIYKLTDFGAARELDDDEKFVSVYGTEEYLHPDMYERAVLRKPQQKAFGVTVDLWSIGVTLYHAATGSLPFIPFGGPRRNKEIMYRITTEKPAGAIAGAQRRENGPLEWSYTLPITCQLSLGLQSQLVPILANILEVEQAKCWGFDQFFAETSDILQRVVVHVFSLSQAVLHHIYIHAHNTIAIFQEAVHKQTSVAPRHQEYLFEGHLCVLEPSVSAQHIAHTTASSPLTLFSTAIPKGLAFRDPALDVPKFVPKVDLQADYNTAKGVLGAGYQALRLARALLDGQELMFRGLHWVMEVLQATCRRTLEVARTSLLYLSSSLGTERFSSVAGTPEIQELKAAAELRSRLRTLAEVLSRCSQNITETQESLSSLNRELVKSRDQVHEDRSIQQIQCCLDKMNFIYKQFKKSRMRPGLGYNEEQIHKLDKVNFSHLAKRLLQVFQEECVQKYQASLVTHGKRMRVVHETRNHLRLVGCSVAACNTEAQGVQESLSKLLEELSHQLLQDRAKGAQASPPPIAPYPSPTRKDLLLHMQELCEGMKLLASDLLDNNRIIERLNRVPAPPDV
Briefly: IKKe Biochemical Assay. The settings on record: read-out: IKKε IC50. The essentials:
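Activity was measured as mobility-shift separation of phosphorylated from unphosphorylated substrate on a LabChip EZ Reader. Compound was titrated from 30 uM final in 10 points, 1:4 steps, with 1% DMSO, and enzyme plus substrate reacted 90 min at 25° C before stop buffer. Control wells held 10 uM staurosporine.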

In assay [1] the test system is phosphorylation of the IRF-3 protein in MDA-MB-468 cells. Kind of assay: pIRF3 immunocytochemistry cell based assay. To be noted: Homo sapiens. The essentials: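 After 2 h stimulation with Poly(I:C) (10 ug/ml), following 1 h compound pre-treatment (10-point, 3-fold dilution, top 10 uM), MDA-MB-468 cells were fixed and stained with anti-pIRF3 antibody. pIRF3 fluorescence was normalized to PI staining or cell count on an Acumen cytometer. IC50 curves were derived from this.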

The target in a further assay is T2, TBK1 (Homo sapiens, UniProt Q9UHD2).
T2 sequence (Q9UHD2 1-729): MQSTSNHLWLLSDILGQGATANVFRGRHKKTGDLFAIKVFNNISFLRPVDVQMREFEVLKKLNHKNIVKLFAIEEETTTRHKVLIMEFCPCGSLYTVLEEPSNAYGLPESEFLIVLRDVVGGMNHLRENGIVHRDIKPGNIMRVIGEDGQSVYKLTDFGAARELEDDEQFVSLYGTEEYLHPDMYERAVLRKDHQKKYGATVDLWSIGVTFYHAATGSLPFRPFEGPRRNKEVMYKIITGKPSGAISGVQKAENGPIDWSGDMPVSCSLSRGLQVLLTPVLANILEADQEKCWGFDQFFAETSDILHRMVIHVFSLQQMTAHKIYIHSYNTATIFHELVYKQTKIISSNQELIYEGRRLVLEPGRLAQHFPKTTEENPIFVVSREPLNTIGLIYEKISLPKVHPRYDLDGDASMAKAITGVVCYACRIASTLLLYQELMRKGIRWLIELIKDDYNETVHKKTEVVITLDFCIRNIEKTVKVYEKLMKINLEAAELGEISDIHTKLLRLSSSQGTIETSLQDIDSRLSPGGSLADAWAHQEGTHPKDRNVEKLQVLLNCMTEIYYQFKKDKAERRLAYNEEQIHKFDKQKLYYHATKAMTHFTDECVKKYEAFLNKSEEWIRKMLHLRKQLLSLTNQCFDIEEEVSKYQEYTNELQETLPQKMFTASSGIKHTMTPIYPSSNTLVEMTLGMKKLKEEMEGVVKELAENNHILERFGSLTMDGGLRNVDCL
Briefly: TBK Biochemical Assay. To be noted: read-out: TBK1 IC50. The essentials:
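Caliper LabChip mobility-shift readout of substrate and product after 90 min of TBK1 reaction at 25° C and stop-buffer addition. Compounds tested in 1:4 serial dilution over 10 points from 30 uM final at 1% DMSO; staurosporine 10 uM final defines full inhibition.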

Setting [2] is: MDA-MB-468 cells, Poly(I:C) stimulation, read-out: pIRF3 IC50.
[3] abbreviates: MDA-MB-468, read-out: pIRF3 IC50.

By IC50 is commonly meant the midpoint of a concentration-inhibition curve. In the case of `COc1cc(C(=O)N(C)C)cnc1-c1cc2ncc(C)c(-c3ccc(NC4CCOCC4)c(C#N)n3)c2o1` [Compound 322, 6-(7-(6-cyano-5-(tetrahydro-2H-pyran-4-ylamino)pyridin-2-yl)-6-methylfuro[3,2-b]pyridin-2-yl)-5-methoxy-N,N-dimethylnicotinamide], the IC50 at IKKε was in the range of 1000 to 5000 nM; in assay [1] (setting [2]), 1000 to 5000 nM; on TBK1 it was 100 to 1000 nM.
Consider `COc1cc(C(=O)N(C)C)ccc1-c1cc2nccc(-c3cnc(NC4CCOCC4)c(C#N)c3)c2o1` [Compound 324, 4-(7-(5-cyano-6-(tetrahydro-2H-pyran-4-ylamino)pyridin-3-yl)furo[3,2-b]pyridin-2-yl)-3-methoxy-N,N-dimethylbenzamide], for which the IC50 at IKKε is less than 100 nM; in assay [1] (setting [2]) it was 100 to 1000 nM; at TBK1 it was less than 100 nM.
As to `COc1cc(C(=O)N(C)C)ncc1-c1cc2nccc(-c3ccc(NC4CCOCC4)c(C#N)c3)c2o1` [Compound 325, 5-(7-[3-cyano-4-[(oxan-4-yl)amino]phenyl]furo[3,2-b]pyridin-2-yl)-4-methoxy-N,N-dimethylpyridine-2-carboxamide], the results for the 50% inhibitory concentration (IC50) (at IKKε; in assay [1] (setting [3]); at TBK1) were less than 100 nM, 100 to 1000 nM and less than 100 nM, respectively.
On to `COc1cc(C(=O)N(C)C)ncc1-c1cc2nccc(-c3ccc(OC4CCOCC4)c(C#N)c3)c2o1` [Compound 326, 5-[7-[3-cyano-4-(oxan-4-yloxy)phenyl]furo[3,2-b]pyridin-2-yl]-4-methoxy-N,N-dimethylpyridine-2-carboxamide], for which the IC50 (at IKKε; in assay [1] (setting [2]); at TBK1) was less than 100 nM each time.
Regarding `COc1cc(C(=O)N(C)CCO)cnc1-c1cc2nccc(-c3ccc(OC4CCOCC4)c(C#N)n3)c2o1` [Compound 327, 6-[7-[6-cyano-5-(oxan-4-yloxy)pyridin-2-yl]furo[3,2-b]pyridin-2-yl]-N-(2-hydroxyethyl)-5-methoxy-N-methylpyridine-3-carboxamide hydrochloride], the IC50 (on IKKε; in assay [1] (setting [3]); on TBK1) was less than 100 nM throughout.
As to `COc1cc(C(=O)N(C)CCO)cnc1-c1cc2nccc(-c3ccc(OC4CCOCC4)c(C#N)c3)c2o1` [Compound 328, 6-[7-[3-cyano-4-(oxan-4-yloxy)phenyl]furo[3,2-b]pyridin-2-yl]-N-(2-hydroxyethyl)-5-methoxy-N-methylpyridine-3-carboxamide], the half-inhibitory concentration (IC50) (at IKKε; in assay [1] (setting [2]); at TBK1) was less than 100 nM throughout.
As to `COc1cc(C(=O)N(C)C)cnc1-c1cc2ncc(F)c(-c3ccc(NC4CCOCC4)c(C#N)c3)c2o1` [Compound 329, 6-(7-[3-cyano-4-[(oxan-4-yl)amino]phenyl]-6-fluorofuro[3,2-b]pyridin-2-yl)-5-methoxy-N,N-dimethylpyridine-3-carboxamide], the half-inhibitory concentration (IC50) at IKKε is 100 to 1000 nM; in assay [1] (setting [2]), 100 to 1000 nM; on TBK1 it was less than 100 nM.
In the case of `COc1cc(C(=O)N(C)CCO)cnc1-c1cc2ncc(F)c(-c3ccc(OC4CCOCC4)c(C#N)c3)c2o1` [Compound 334, 6-[7-[3-cyano-4-(oxan-4-yloxy)phenyl]-6-fluorofuro[3,2-b]pyridin-2-yl]-N-(2-hydroxyethyl)-5-methoxy-N-methylpyridine-3-carboxamide], the IC50 at IKKε is less than 100 nM; in assay [1] (setting [2]) it was 100 to 1000 nM; at TBK1, less than 100 nM.
In the case of `COc1cc(C(=O)N(C)C)cnc1-c1cc2ncc(OC)c(-c3ccc(OC4CCOCC4)c(C#N)n3)c2o1` [Compound 338, 6-[7-[6-cyano-5-(oxan-4-yloxy)pyridin-2-yl]-6-methoxyfuro[3,2-b]pyridin-2-yl]-5-methoxy-N,N-dimethylpyridine-3-carboxamide hydrochloride], the IC50 on IKKε lay in the range of 100 to 1000 nM; in assay [1] (setting [2]), 1000 to 5000 nM; at TBK1 it was 100 to 1000 nM.
For the compound `COc1cc(C(=O)NC2CC(CN(C)C)C2)ccc1-c1cc2nccc(-c3ccc(OC4CCOCC4)c(C#N)c3)c2o1` (stereo not drawn) [Compound 344, 4-[7-[3-cyano-4-(oxan-4-yloxy)phenyl]furo[3,2-b]pyridin-2-yl]-N-[3-[(dimethylamino)methyl]cyclobutyl]-3-methoxybenzamide], the IC50 at IKKε was less than 100 nM; in assay [1] (setting [2]) it was 100 to 1000 nM; at TBK1, less than 100 nM.
Take `COc1cc(C(=O)NC2(CO)CCN(C)C2)ccc1-c1cc2nccc(-c3ccc(OC4CCOCC4)c(C#N)c3)c2o1` (stereo not drawn) [Compound 345, 4-[7-[3-cyano-4-(oxan-4-yloxy)phenyl]furo[3,2-b]pyridin-2-yl]-N-[3-(hydroxymethyl)-1-methylpyrrolidin-3-yl]-3-methoxybenzamide]: the results for the IC50 (on IKKε; in assay [1] (setting [2]); at TBK1) were less than 100 nM, 100 to 1000 nM and less than 100 nM, respectively.
With `COc1cc(C(=O)N[C@H]2COC[C@@H]2N(C)C)ccc1-c1cc2nccc(-c3ccc(OC4CCOCC4)c(C#N)c3)c2o1` [Compound 346, 4-[7-[3-cyano-4-(oxan-4-yloxy)phenyl]furo[3,2-b]pyridin-2-yl]-N-[(3R,4R)-4-(dimethylamino)oxolan-3-yl]-3-methoxy benzamide], the IC50 was less than 100 nM at IKKε, 100 to 1000 nM in assay [1] (setting [3]) and less than 100 nM on TBK1.
`COc1cc(C(=O)NC2CCN(C)CC2O)ccc1-c1cc2nccc(-c3ccc(OC4CCOCC4)c(C#N)c3)c2o1` (stereo not drawn) [Compound 347, 4-[7-[3-cyano-4-(oxan-4-yloxy)phenyl]furo[3,2-b]pyridin-2-yl]-N-(3-hydroxy-1-methylpiperidin-4-yl)-3-methoxybenzamide]: the IC50 was less than 100 nM on IKKε, 100 to 1000 nM in assay [1] (setting [2]) and less than 100 nM on TBK1.
On to `COc1cc(C(=O)NC2CN(C)CCC2O)ccc1-c1cc2nccc(-c3ccc(OC4CCOCC4)c(C#N)c3)c2o1` (stereo not drawn) [Compound 348, 4-[7-[3-cyano-4-(oxan-4-yloxy)phenyl]furo[3,2-b]pyridin-2-yl]-N-(4-hydroxy-1-methylpiperidin-3-yl)-3-methoxybenzamide], for which the IC50 at IKKε is less than 100 nM; in assay [1] (setting [2]), 100 to 1000 nM; on TBK1 it was less than 100 nM.
Consider `COc1cc(C(=O)NC2(C#N)CCN(C)C2)ccc1-c1cc2nccc(-c3ccc(OC4CCOCC4)c(C#N)c3)c2o1` (stereo not drawn) [Compound 349, N-(3-cyano-1-methylpyrrolidin-3-yl)-4-[7-[3-cyano-4-(oxan-4-yloxy)phenyl]furo[3,2-b]pyridin-2-yl]-3-methoxybenzamide], for which the values for the IC50 (at IKKε; in assay [1] (setting [2]); on TBK1) were less than 100 nM, 100 to 1000 nM and less than 100 nM, respectively.
As for `COc1cc(C(=O)N(C)C)cnc1-c1cc2ncc(F)c(-c3ccc(NC4CCOCC4)c(C#N)n3)c2o1` [Compound 352, 6-(7-[6-cyano-5-[(oxan-4-yl)amino]pyridin-2-yl]-6-fluorofuro[3,2-b]pyridin-2-yl)-5-methoxy-N,N-dimethylpyridine-3-carboxamide], the figures for the IC50 (at IKKε; in assay [1] (setting [2]); on TBK1) were 1000 to 5000 nM, 1000 to 5000 nM and 100 to 1000 nM, respectively.
Turning to `COc1cc(C(=O)NC2CN(CC(C)C)C2)ccc1-c1cc2nccc(-c3ccc(OC4CCOCC4)c(C#N)c3)c2o1` [Compound 355, 4-[7-[3-cyano-4-(oxan-4-yloxy)phenyl]furo[3,2-b]pyridin-2-yl]-3-methoxy-N-[1-(2-methylpropyl)azetidin-3-yl]benzamide], the 50% inhibitory concentration (IC50) is less than 100 nM on IKKε, 100 to 1000 nM in assay [1] (setting [3]) and less than 100 nM at TBK1.
